Values quoted from earlier work, collected in patent US8784886B2, “Coating capsules with active pharmaceutical ingredients” (GlaxoSmithKline, LLC, priority 2006, dated 2014).

Details: gelatin capsules, stored and packaged under the prescribed conditions of temperature and humidity

time without significant loss of potency of the encapsulated contents: ≥ 3 years
SMILES: CC1=C(/C=C/C(C)=C/C=C/C(C)=C/CO)C(C)(C)CCC1 [USP vitamin A, vitamin A]
